Test results as given in patent US5137872A, “Growth hormone-releasing factor analogs” (Pitman-Moore, Inc., priority 1989, dated 1992).

Test system: serum ovine somatotropin (oST)
Experiment: Serum ovine somatotropin (oST) by RIA after subcutaneous injection of GRF compounds in lambs
Assay type: in vivo
Experimental: Whether lambs (40-45 kg) were injected subcutaneously with the following GRF compounds in a phosphate buffered saline vehicle (pH 7):
10.0 ug/kg recombinant native hGRF (rhGRF)
5.0 ug/kg synthetic native hGRF (shGRF)
5.0 ug/kg [Pro^0, Gly^15, Met^27 ]-hGRF(1-44)-NH2 (aGRF)
There were 4 animals per treatment group and each treatment was repeated 3 times to give a total of 12 samples/time point/treatment. The animals were bled at time 0, 10, 20, 30, 60 and 120 minutes after injection and analyzed for serum ovine somatotropin (oST) by radioimmunoassay (RIA).
Example 4 was repeated using the following treatments:
20.0 ug/kg recombinant native hGRF (rhGRF)
10.0 ug/kg synthetic native hGRF (shGRF)

[1] = 5.0 ug/kg subcutaneous, FIG. 1 (Example 4)
[2] = 10.0 ug/kg subcutaneous, FIG. 2 (Example 5)

| Compound | serum oST concentration at 120 minutes post injection versus time 0 [1] | duration of in vivo biological activity [1] | serum oST concentration at 120 minutes post injection versus time 0 [2] | duration of in vivo bioactivity compared to native GRF [2] |
| --- | --- | --- | --- | --- |
| [Pro^0, Gly^15, Met^27 ]-hGRF(1-44)-NH2 | oST concentrations greater than those at time 0 | prolonged in vivo biological activity | oST concentrations greater than those at time 0 | prolonged in vivo bioactivity |
| CC[C@H](C)[C@H](NC(=O)[C@H](C)NC(=O)[C@H](CC(=O)O)NC(=O)[C@H](C)NC(=O)[C@@H](N)Cc1ccc(O)cc1)C(=O)N[C@@H](Cc1ccccc1)C(=O)N[C@H](C(=O)N[C@@H](CC(N)=O)C(=O)N[C@@H](CO)C(=O)N[C@@H](Cc1ccc(O)cc1)C(=O)N[C@@H](CCCNC(=N)N)C(=O)N[C@@H](CCCCN)C(=O)N[C@H](C(=O)N[C@@H](CC(C)C)C(=O)NCC(=O)N[C@@H](CCC(N)=O)C(=O)N[C@@H](CC(C)C)C(=O)N[C@@H](CO)C(=O)N[C@@H](C)C(=O)N[C@@H](CCCNC(=N)N)C(=O)N[C@@H](CCCCN)C(=O)N[C@@H](CC(C)C)C(=O)N[C@@H](CC(C)C)C(=O)N[C@@H](CCC(N)=O)C(=O)N[C@@H](CC(=O)O)C(=O)N[C@H](C(=O)N[C@@H](CCSC)C(=O)N[C@@H](CO)C(=O)N[C@@H](CCCNC(=N)N)C(=O)N[C@@H](CCC(N)=O)C(=O)N[C@@H](CCC(N)=O)C(=O)NCC(=O)N[C@@H](CCC(=O)O)C(=O)N[C@@H](CO)C(=O)N[C@@H](CC(N)=O)C(=O)N[C@@H](CCC(N)=O)C(=O)N[C@@H](CCC(=O)O)C(=O)N[C@@H](CCCNC(=N)N)C(=O)NCC(=O)N[C@@H](C)C(=O)N[C@@H](CCCNC(=N)N)C(=O)N[C@@H](C)C(=O)N[C@@H](CCCNC(=N)N)C(=O)N[C@@H](CC(C)C)C(N)=O)[C@@H](C)CC)C(C)C)[C@@H](C)O [native synthetic hGRF, reference compound] | returned to baseline serum oST levels | – | returned to baseline serum oST levels | – |
